IC50 data for 75 compounds are collected here from patent US20240246941A1, “SUBSTITUTED 4-(3-AMINOPROP-1-YL)AMINOQUINOLINE ANALOGS AS MODULATORS OF MELANOMA-ASSOCIATED ANTIGEN 11 UBIQUITIN LIGASE” (ST. JUDE CHILDREN'S RESEARCH HOSPITAL, INC., priority 2020, published 2024).

Each structure is given as a SMILES string. pIC50: −log10 of the molar value.

interaction between GST-MAGEA11 MHD and FAM-PCF11_4 peptide (MAGE-A11:PCF11), sequence (P43364 218-429): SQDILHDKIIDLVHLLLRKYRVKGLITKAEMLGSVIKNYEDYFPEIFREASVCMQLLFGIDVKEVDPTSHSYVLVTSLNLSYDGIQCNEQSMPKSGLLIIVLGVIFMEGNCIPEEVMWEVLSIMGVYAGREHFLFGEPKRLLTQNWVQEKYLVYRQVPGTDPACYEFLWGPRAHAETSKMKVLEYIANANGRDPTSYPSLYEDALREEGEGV

The first experiment deals with interaction between GST-MAGEA11 MHD and FAM-PCF11_4 peptide (MAGE-A11:PCF11) (Homo sapiens (Human), UniProt P43364). The experiment in a line: TR-FRET dose response competition assay for disruption of MAGE-A11:PCF11 binding. As to conditions: Dose response TR-FRET screening of nine scaffold groups against MAGE-A11:PCF11; read-out: consensus IC50. In short, it runs like this:
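Competition TR-FRET at room temperature in 50 mM Tris pH 7.5, 20 mM MgCl2, 0.1 mg/ml BSA, 1 mM DTT: final 5 nM GST-MAGEA11 MHD, 5 nM Tb-anti-GST, 200 nM FAM-PCF11_4, 90 min. Ratio 520/490 nm converted to % inhibition; IC50 from sigmoidal fit.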
Regarding `O=C1C(Cl)=C(Nc2ccc(Cl)cc2)C(=O)c2ccccc21` [SJ000297073-1], the negative-log IC50 (pIC50) was 4.16. As for `CCn1c2ccccc2c2cc(CN3CCN(C(=O)c4ccc(OC)c(OC)c4)CC3)ccc21` [SJ000298589-1], the pIC50 was 4.16. On the same count and under the same terms, to `COC(=O)c1ccc(NC2=C(Cl)C(=O)c3ccccc3C2=O)cc1` [SJ000299646-1] belongs 4.16; to `CC1CCCC(C)C1NC1=C(Cl)C(=O)c2ccccc2C1=O` (stereo not drawn) [SJ000299694-1], 4.16. On the same count and under the same terms, to `CC(=O)N(C1=C(Cl)C(=O)c2ccccc2C1=O)c1ccc(Br)cc1` [SJ000299699-2] belongs 4.16. The same measure, in the same setting: the figure for `O=C1C(Cl)=C(Nc2ccc(Nc3ccccc3)cc2)C(=O)c2ccccc21` [SJ000299708-1] is 4.16; for `NC1=C(Nc2cccc3ccccc23)C(=O)c2ccccc2C1=O` [SJ000300361-1] it is 4.16; for `Cn1c2ccccc2c2cc(C(=O)N3CCc4nncn4CC3)ccc21` [SJ000307416-1] it is 4.16. With `CCn1c2ccccc2c2cc(CN3CCc4nnc(CNS(=O)(=O)C(C)C)n4CC3)ccc21` [SJ000307753-1], the pIC50 is 4.16. On the same count and under the same terms, to `CCn1c2ccccc2c2cc(CN3CCc4nnc(C(C)NC(=O)CCOC)n4CC3)ccc21` (stereo not drawn) [SJ000307915-1] belongs 4.16; to `CCn1c2ccccc2c2cc(CN3CCc4nnc(CNC(=O)c5ccccc5)n4CC3)ccc21` [SJ000307948-1], 4.16.

Take `Cn1c2ccccc2c2cc(C(=O)NCC3CCC4(CCN(Cc5ccccn5)CC4)O3)ccc21` (stereo not drawn) [SJ000308489-1]: the pIC50 was 4.16. Consider `COc1ccccc1CNCCCNc1ccnc2cc(Cl)ccc12` [SJ000311185-1], for which the pIC50 is 4.16. `Oc1ccc(Br)cc1CNCCCNc1ccnc2cc(Cl)ccc12` [SJ000311186-1]: the pIC50 is 4.16. On the same count and under the same terms, the figure for `Oc1ccccc1CNCCCNc1ccnc2cc(Cl)ccc12` [SJ000311187-1] is 4.16; for `COc1ccc(O)c(C(C)NCCCNc2ccnc3cc(Cl)ccc23)c1` (stereo not drawn) [SJ000311188-1] it is 4.16; for `O=[N+]([O-])c1ccc(CNCCCNc2ccnc3cc(Cl)ccc23)cc1O` [SJ000311191-1] it is 4.16. For the compound `COc1ccc(CNCCCNc2ccnc3cc(Cl)ccc23)cc1O` [SJ000311192-1], the pIC50 is 4.16. On the same count and under the same terms, to `CC(C)(C)c1ccc(O)c(CNCCCNc2ccnc3cc(Cl)ccc23)c1` [SJ000311193-1] belongs 4.52. With `Oc1ccc(Br)c(CNCCCNc2ccnc3cc(Cl)ccc23)c1` [SJ000311194-1], the pIC50 is 4.16. For the compound `CCCN(CCCCNc1ccnc2cc(Cl)ccc12)Cc1cc(Br)ccc1O` [SJ000311196-1], the pIC50 was 4.16. As for `COc1cccc(CNCCCNc2ccnc3cc(Oc4ccccc4)ccc23)c1O` [SJ000311207-1], the pIC50 was 4.16. On the same count and under the same terms, the figure for `c1ccc(Oc2ccc3c(NCCCNCc4cccc5c4OCO5)ccnc3c2)cc1` [SJ000311208-1] is 4.52; for `COc1ccc(F)cc1CNCCCNc1ccnc2cc(Oc3ccccc3)ccc12` [SJ000311209-1] it is 4.54; for `COc1ccccc1Oc1ccc2c(NCCCNCc3cccc(OC)c3O)ccnc2c1` [SJ000311211-1] it is 4.16. On to `COc1ccccc1Oc1ccc2c(NCCCNCc3cccc4c3OCO4)ccnc2c1` [SJ000311212-1], for which the pIC50 is 4.16. For `COc1ccc(F)cc1CNCCCNc1ccnc2cc(Oc3ccccc3OC)ccc12` [SJ000311213-1], the pIC50 is 4.16. Same read-out and setting: the figure for `COc1cccc(Oc2ccc3c(NCCCNCc4cccc(OC)c4O)ccnc3c2)c1` [SJ000311215-1] is 4.16; for `COc1cccc(Oc2ccc3c(NCCCNCc4cccc5c4OCO5)ccnc3c2)c1` [SJ000311216-1] it is 4.43; for `COc1cccc(Oc2ccc3c(NCCCNCc4cc(F)ccc4OC)ccnc3c2)c1` [SJ000311217-1] it is 4.43. The same measure, in the same setting: to `COc1ccc(Oc2ccc3c(NCCCNCc4cccc(OC)c4O)ccnc3c2)cc1` [SJ000311219-1] belongs 4.54; to `COc1ccc(Oc2ccc3c(NCCCNCc4cccc5c4OCO5)ccnc3c2)cc1` [SJ000311220-1], 4.36; to `COc1ccc(Oc2ccc3c(NCCCNCc4cc(F)ccc4OC)ccnc3c2)cc1` [SJ000311221-1], 4.33. The same measure, in the same setting: to `COc1cccc(CNCCCNc2ccnc3cc(Oc4ccc(F)cc4)ccc23)c1O` [SJ000311223-1] belongs 4.21; to `Fc1ccc(Oc2ccc3c(NCCCNCc4cccc5c4OCO5)ccnc3c2)cc1` [SJ000311224-1], 4.22. On to `COc1ccc(F)cc1CNCCCNc1ccnc2cc(Oc3ccc(F)cc3)ccc12` [SJ000311225-1], for which the pIC50 was 4.16. Same read-out and setting: to `COc1cccc(CNCCCNc2ccnc3cc(Oc4ccc(Cl)cc4)ccc23)c1O` [SJ000311227-1] belongs 4.68; to `Clc1ccc(Oc2ccc3c(NCCCNCc4cccc5c4OCO5)ccnc3c2)cc1` [SJ000311228-1], 4.75; to `COc1ccc(F)cc1CNCCCNc1ccnc2cc(Oc3ccc(Cl)cc3)ccc12` [SJ000311229-1], 4.71. As to `COc1cccc(CNCCCNc2ccnc3cc(Oc4cccc(N(C)C)c4)ccc23)c1O` [SJ000311231-1], the pIC50 was 4.16. On to `CN(C)c1cccc(Oc2ccc3c(NCCCNCc4cccc5c4OCO5)ccnc3c2)c1` [SJ000311232-1], for which the negative-log IC50 (pIC50) is 4.16. Same read-out and setting: the figure for `COc1ccc(F)cc1CNCCCNc1ccnc2cc(Oc3cccc(N(C)C)c3)ccc12` [SJ000311233-1] is 5.25.

Staying with this experiment, now noted: Table 5, dose response TR-FRET screening of 59 quinoline compounds against MAGE-A11:PCF11; read-out: TR-FRET IC50.
In the case of `COc1ccc(Oc2ccc3c(NCCCNCc4ccco4)ccnc3c2)cc1` [SJ000311218-1], the pIC50 is under 4.15. The same measure, in the same setting: to `Clc1ccc(Oc2ccc3c(NCCCNCc4ccco4)ccnc3c2)cc1` [SJ000311226-1] belongs under 4.15; to `CN(C)c1cccc(Oc2ccc3c(NCCCNCc4ccco4)ccnc3c2)c1` [SJ000311230-1], under 4.15; to `CC(C)(C)c1ccc(Oc2ccc3c(NCCCNCc4ccco4)ccnc3c2)cc1` [SJ000311234-1], 4.49.

The experiment is the same for the next values; noted with them: Table 8, representative compounds; read-out: TR-FRET IC50.
In the case of `COc1ccccc1CNCCCNc1ccnc2cc(Cl)ccc12` [SJ000311185], the pIC50 is 4.16. Same read-out and setting: to `Oc1ccc(Br)cc1CNCCCNc1ccnc2cc(Cl)ccc12` [SJ000311186] belongs 4.16; to `Oc1ccccc1CNCCCNc1ccnc2cc(Cl)ccc12` [SJ000311187], 4.16; to `COc1ccc(O)c(C(C)NCCCNC2C=CN=C3C=C(Cl)C=CC32)c1` (stereo not drawn) [SJ000311188], 4.16.

For the compound `O=[N+]([O-])c1ccc(CNCCCNc2ccnc3cc(Cl)ccc23)cc1O` [SJ000311191], the pIC50 was 4.16. For `COc1ccc(CNCCCNc2ccnc3cc(Cl)ccc23)cc1O` [SJ000311192], the pIC50 is 4.16.

For `CC(C)(C)c1ccc(O)c(CNCCCNc2ccnc3cc(Cl)ccc23)c1` [SJ000311193], the pIC50 was 4.52. On the same count and under the same terms, the figure for `Oc1ccc(Br)c(CNCCCNc2ccnc3cc(Cl)ccc23)c1` [SJ000311194] is 4.16; for `COc1cccc(CNCCCNc2ccnc3cc(Oc4ccccc4)ccc23)c1O` [SJ000311207] it is 4.16. Same read-out and setting: to `c1ccc(Oc2ccc3c(NCCCNCc4cccc5c4OCO5)ccnc3c2)cc1` [SJ000311208] belongs 4.52; to `COc1ccc(F)cc1CNCCCNc1ccnc2cc(Oc3ccccc3)ccc12` [SJ000311209], 4.54.

For the compound `COc1ccccc1Oc1ccc2c(NCCCNCc3cccc(OC)c3O)ccnc2c1` [SJ000311211], the pIC50 was 4.16. The same measure, in the same setting: to `COc1ccccc1Oc1ccc2c(NCCCNCc3cccc4c3OCO4)ccnc2c1` [SJ000311212] belongs 4.16; to `COc1ccc(F)cc1CNCCCNc1ccnc2cc(Oc3ccccc3OC)ccc12` [SJ000311213], 4.16; to `COc1cccc(Oc2ccc3c(NCCCNCc4cccc(OC)c4O)ccnc3c2)c1` [SJ000311215], 4.16. Still for that read-out and setting: the figure for `COc1cccc(Oc2ccc3c(NCCCNCc4cccc5c4OCO5)ccnc3c2)c1` [SJ000311216] is 4.43; for `COc1cccc(Oc2ccc3c(NCCCNCc4cc(F)ccc4OC)ccnc3c2)c1` [SJ000311217] it is 4.43. As for `COc1ccc(Oc2ccc3c(NCCCNCc4cccc(OC)c4O)ccnc3c2)cc1` [SJ000311219], the pIC50 was 4.54. On the same count and under the same terms, to `COc1ccc(Oc2ccc3c(NCCCNCc4cccc5c4OCO5)ccnc3c2)cc1` [SJ000311220] belongs 4.36; to `COc1ccc(Oc2ccc3c(NCCCNCc4cc(F)ccc4OC)ccnc3c2)cc1` [SJ000311221], 4.33; to `COc1cccc(CNCCCNc2ccnc3cc(Oc4ccc(F)cc4)ccc23)c1O` [SJ000311223], 4.21. For `Fc1ccc(Oc2ccc3c(NCCCNCc4cccc5c4OCO5)ccnc3c2)cc1` [SJ000311224], the pIC50 is 4.22. Still for that read-out and setting: to `COc1ccc(F)cc1CNCCCNc1ccnc2cc(Oc3ccc(F)cc3)ccc12` [SJ000311225] belongs 4.16; to `COc1cccc(CNCCCNc2ccnc3cc(Oc4ccc(Cl)cc4)ccc23)c1O` [SJ000311227], 4.68; to `Clc1ccc(Oc2ccc3c(NCCCNCc4cccc5c4OCO5)ccnc3c2)cc1` [SJ000311228], 4.75. For `COc1ccc(F)cc1CNCCCNc1ccnc2cc(Oc3ccc(Cl)cc3)ccc12` [SJ000311229], the pIC50 was 4.71.

`COc1cccc(CNCCCNc2ccnc3cc(Oc4cccc(N(C)C)c4)ccc23)c1O` [SJ000311231]: the pIC50 is 4.16. Same read-out and setting: the figure for `CN(C)c1cccc(Oc2ccc3c(NCCCNCc4cccc5c4OCO5)ccnc3c2)c1` [SJ000311232] is 4.16; for `COc1ccc(F)cc1CNCCCNc1ccnc2cc(Oc3cccc(N(C)C)c3)ccc12` [SJ000311233] it is 5.25.

Usually pIC50 stands for the negative decadic logarithm of the IC50, by convention in mol/L.
